Results taken from patent publication US6110965A, “Ketolides from the class of 15-membered lactams” (PLIVA, farmaceutska, kemijska, prehrambena i kozmeticka …, priority 1998, dated 2000).
In brackets after ≈: the same amount, converted by molar mass. Read-outs that look alike come from different tables or passages of the source.

Tests used:
[1] = test system: Listeria monocytogenes ATCC 7644; experiment: Antibacterial in vitro action (MIC), microdilution process according to NCCLS; assay type: cell-based
[2] = test system: Staphylococcus aureus ATCC 25923; experiment: as above; assay type: cell-based
[3] = test system: Staphylococcus epidermidis ATCC 12228; experiment: as above; assay type: cell-based
[4] = test system: Enterococcus faecalis ATCC 35550; experiment: as above; assay type: cell-based
[5] = test system: Streptococcus pneumoniae ATCC 6305; experiment: as above; assay type: cell-based
[6] = test system: Streptococcus pyogenes ATCC 19615; experiment: as above; assay type: cell-based
[7] = test system: Clostridium perfringens ATCC 13124; experiment: microbe, parasite or virus in culture; assay type: cell-based; conditions: ATCC13124, read-out: Antibacterial in vitro action (MIC, mg/l)
[8] = test system: Moraxella catarrhalis ATCC 25238; experiment: Antibacterial in vitro action (MIC), microdilution process according to NCCLS; assay type: cell-based
[9] = test system: Campylobacter fetus ATCC 19438; experiment: as above; assay type: cell-based
[10] = test system: Campylobacter jejuni ATCC 33291; experiment: as above; assay type: cell-based
[11] = test system: Citroobacter freundii ATCC 8090; experiment: as above; assay type: cell-based; conditions: read-out: Antibacterial in vitro action (MIC, mg/l)
[12] = test system: Escherichia coli ATCC 25922; experiment: as above; assay type: cell-based; conditions: ATCC25922, read-out: Antibacterial in vitro action (MIC, mg/l)
[13] = test system: Proteus mirabilis ATCC 12453; experiment: as above; assay type: cell-based
[14] = test system: Proteus mirabilis ATCC 43071; experiment: as above; assay type: cell-based
[15] = test system: Salmonella choleraesuis ATCC 13076; experiment: as above; assay type: cell-based; conditions: Salmonella enterica, read-out: Antibacterial in vitro action (MIC, mg/l)
[16] = test system: Shigella flexneri ATCC 12022; experiment: as above; assay type: cell-based; conditions: ATCC12022, read-out: Antibacterial in vitro action (MIC, mg/l)
Description: Antibacterial in vitro action of the new compounds of the general formula (I), wherein A, B, R^1, R^2 and R^3 have the above-mentioned meanings, and of their pharmaceutically acceptable addition salts with inorganic or organic acids was determined on a series of standard test microorganisms and clinical isolates by microdilution process according to the protocol NCCLS (The National Commitee for Clinical Laboratory Standards, Document M7-A2, Vol. 10, No. 8, 1990 and Document M11-A2, Vol. 10, 15,1991). The control of the laboratory process was performed by means of control strain Staphyloccocus aureus ATTC 29213 (The American Type Culture Collection) according to protocol NCCLS (Document M7-A2, Table 3, M100-S4).
The antibacterial in vitro action on a series of standard test microorganisms for 6-O-methyl-8a-aza-8a-homoerythromycin A from Example 3 in comparison with azithromycin, erythromycin and clarithromycin is represented in Table 1.

[17] = test system: Yersinia enterocolitica ATCC 9610; experiment: as above; assay type: cell-based
[18] = test system: Haemophilus influenzae ATCC 49247; experiment: as above; assay type: cell-based
[19] = test system: Haemophilus influenzae ATCC 49766; experiment: as above; assay type: cell-based
[20] = test system: Pseudomonas aeruginosa ATCC 25619; experiment: as above; assay type: cell-based
[21] = compared to erythromycin A; cited from earlier work
[22] = test system: gram-positive bacterial strains; conditions: compared to erythromycin A; cited from earlier work
[23] = in vivo; cited from earlier work
human phagocyte cells = conditions: cited from earlier work
gram-negative bacteria = conditions: cited from earlier work
[24] = oral preparations; cited from earlier work
[25] = Listeria monocytogenes, ATCC7644, read-out: Antibacterial in vitro action (MIC, mg/l)
[26] = ATCC25923, Staphylococcus aureus ATCC 25923, read-out: Antibacterial in vitro action (MIC, mg/l)
[27] = ATCC12228, Staphylococcus epidermidis ATCC 12228, read-out: Antibacterial in vitro action (MIC, mg/l)
[28] = ATCC35550, Enterococcus faecalis ATCC 35550, read-out: Antibacterial in vitro action (MIC, mg/l)
[29] = Streptococcus pneumoniae, ATCC6305, read-out: Antibacterial in vitro action (MIC, mg/l)
[30] = Streptococcus pyogenes, ATCC19615, read-out: Antibacterial in vitro action (MIC, mg/l)
[31] = Moraxella catarrhalis, ATCC25238, read-out: Antibacterial in vitro action (MIC, mg/l)
[32] = Campylobacter fetus, ATCC19438, read-out: Antibacterial in vitro action (MIC, mg/l)
[33] = Campylobacter jejuni, ATCC33291, read-out: Antibacterial in vitro action (MIC, mg/l)
[34] = Citroobacter freundii ATCC 8090
[35] = ATCC12453, Proteus mirabilis ATCC 12453, read-out: Antibacterial in vitro action (MIC, mg/l)
[36] = ATCC43071, Proteus mirabilis ATCC 43071, read-out: Antibacterial in vitro action (MIC, mg/l)
[37] = Salmonella choleraesuis ATCC 13076
[38] = ATCC9610, Yersinia enterocolitica ATCC 9610, read-out: Antibacterial in vitro action (MIC, mg/l)
[39] = ATCC49247, Haemophilus influenzae ATCC 49247, read-out: Antibacterial in vitro action (MIC, mg/l)
[40] = ATCC49766, Haemophilus influenzae ATCC 49766, read-out: Antibacterial in vitro action (MIC, mg/l)
[41] = ATCC25619, Pseudomonas aeruginosa ATCC 25619, read-out: Antibacterial in vitro action (MIC, mg/l)

Structure (SMILES)	MIC [1, 25] [mg/L]	MIC [2, 26] [mg/L]	MIC [3, 27] [mg/L]	MIC [4, 28] [mg/L]	MIC [5, 29] [mg/L]	MIC [6, 30] [mg/L]	MIC [7] [mg/L]	MIC [8, 31] [mg/L]	MIC [9, 32] [mg/L]	MIC [10, 33] [mg/L]	MIC [11, 34] [mg/L]	MIC [12] [mg/L]	MIC [13, 35] [mg/L]	MIC [14, 36] [mg/L]	MIC [15, 37] [mg/L]	MIC [16] [mg/L]	MIC [17, 38] [mg/L]	MIC [18, 39] [mg/L]	MIC [19, 40] [mg/L]	MIC [20, 41] [mg/L]	further results
CC[C@H]1OC(=O)[C@H](C)[C@@H](O[C@H]2C[C@@](C)(OC)[C@@H](O)[C@H](C)O2)[C@H](C)[C@@H](O[C@@H]2O[C@H](C)C[C@H](N(C)C)[C@H]2O)[C@](C)(OC)C[C@@H](C)C(=O)[C@H](C)[C@@H](O)[C@]1(C)O [Cl, 6-O-methyl-erythromycin A]	< 0.125	0.5 (≈ 0.668 µM)	0.25 (≈ 0.334 µM)	0.25 (≈ 0.334 µM)	< 0.125	< 0.125	0.125 (≈ 0.167 µM)	< 0.125	< 0.125	< 0.125	64 (≈ 85.6 µM)	32 (≈ 42.8 µM)	128 (≈ 171 µM)	> 128	32 (≈ 42.8 µM)	32 (≈ 42.8 µM)	16 (≈ 21.4 µM)	4 (≈ 5.35 µM)	8 (≈ 10.7 µM)	> 128	stability in acidic medium [21]: considerably more stable in acidic medium; in vitro activity against gram-positive bacterial strains [22]: increased in vitro activity against gram-positive bacterial strains
CC[C@H]1OC(=O)[C@H](C)[C@@H](O[C@H]2C[C@@](C)(OC)[C@@H](O)[C@H](C)O2)[C@H](C)[C@@H](O[C@@H]2O[C@H](C)C[C@H](N(C)C)[C@H]2O)[C@](C)(O)C[C@@H](C)CN(C)[C@H](C)[C@@H](O)[C@]1(C)O [Az, 9-deoxo-9a-methyl-9a-aza-9a-homoerythromycin A]	< 0.125	0.5 (≈ 0.668 µM)	1 (≈ 1.34 µM)	0.5 (≈ 0.668 µM)	< 0.125	< 0.125	0.125 (≈ 0.167 µM)	< 0.125	< 0.125	< 0.125	4 (≈ 5.34 µM)	2 (≈ 2.67 µM)	64 (≈ 85.4 µM)	64 (≈ 85.4 µM)	2 (≈ 2.67 µM)	1 (≈ 1.34 µM)	1 (≈ 1.34 µM)	0.5 (≈ 0.668 µM)	1 (≈ 1.34 µM)	64 (≈ 85.4 µM)	biological half-time [23]: long biological half-time; penetration and accumulation within human phagocyte cells (human phagocyte cells): able to penetrate and to accumulate within human phagocyte cells; antimicrobial spectrum (gram-negative bacteria): broad antimicrobial spectrum including gram-negative bacteria
CC[C@H]1OC(=O)[C@H](C)[C@@H](O[C@H]2C[C@@](C)(OC)[C@@H](O)[C@H](C)O2)[C@H](C)[C@@H](O[C@@H]2O[C@H](C)C[C@H](N(C)C)[C@H]2O)[C@](C)(O)C[C@@H](C)C(=O)[C@H](C)[C@@H](O)[C@]1(C)O [Er, erythromycin A]	< 0.125	–	–	–	< 0.125	< 0.125	0.5 (≈ 0.681 µM)	< 0.125	< 0.125	< 0.125	–	32 (≈ 43.6 µM)	–	–	–	32 (≈ 43.6 µM)	–	–	–	–	MIC ([2]; Staphylococcus aureus, ATCC25923, read-out: Antibacterial in vitro action (MIC, mg/l)): 0.25 mg/L (≈ 0.341 µM); MIC ([3]; Staphylococcus epidermidis, ATCC12228, read-out: Antibacterial in vitro action (MIC, mg/l)): 0.25 mg/L (≈ 0.341 µM); MIC ([4]; Enterococcus faecalis, ATCC35550, read-out: Antibacterial in vitro action (MIC, mg/l)): 1 mg/L (≈ 1.36 µM); MIC [11]: 64 mg/L (≈ 87.2 µM); MIC ([13]; Proteus mirabilis, ATCC12453, read-out: Antibacterial in vitro action (MIC, mg/l)): > 128 mg/L; MIC ([14]; Proteus mirabilis, ATCC43071, read-out: Antibacterial in vitro action (MIC, mg/l)): > 128 mg/L; MIC [15]: 64 mg/L (≈ 87.2 µM); MIC ([17]; Yersinia enterocolitica, ATCC9610, read-out: Antibacterial in vitro action (MIC, mg/l)): 16 mg/L (≈ 21.8 µM); MIC ([18]; Haemophilus influenzae, ATCC49247, read-out: Antibacterial in vitro action (MIC, mg/l)): 2 mg/L (≈ 2.73 µM); MIC ([19]; Haemophilus influenzae, ATCC49766, read-out: Antibacterial in vitro action (MIC, mg/l)): 4 mg/L (≈ 5.45 µM); MIC ([20]; Pseudomonas aeruginosa, ATCC25619, read-out: Antibacterial in vitro action (MIC, mg/l)): > 128 mg/L; gastric intolerance [24]: gastric intolerance in many patients
CC[C@H]1OC(=O)[C@H](C)[C@@H](O[C@H]2C[C@@](C)(OC)[C@@H](O)[C@H](C)O2)[C@H](C)[C@@H](O[C@@H]2O[C@H](C)C[C@H](N(C)C)[C@H]2O)[C@](C)(OC)C[C@@H](C)NC(=O)[C@H](C)[C@@H](O)[C@]1(C)O [Example 3, 6-O-methyl-8a-aza-8a-homoerythromycin A]	–	0.5 (≈ 0.655 µM)	0.5 (≈ 0.655 µM)	1 (≈ 1.31 µM)	–	–	0.25 (≈ 0.328 µM)	–	–	–	16 (≈ 21 µM)	8 (≈ 10.5 µM)	32 (≈ 41.9 µM)	32 (≈ 41.9 µM)	8 (≈ 10.5 µM)	4 (≈ 5.24 µM)	4 (≈ 5.24 µM)	1 (≈ 1.31 µM)	1 (≈ 1.31 µM)	32 (≈ 41.9 µM)	MIC ([1]; ATCC7644, Listeria monocytogenes ATCC 7644, read-out: Antibacterial in vitro action (MIC, mg/l)): < 0.125 mg/L; MIC ([5]; ATCC6305, Streptococcus pneumoniae ATCC 6305, read-out: Antibacterial in vitro action (MIC, mg/l)): < 0.125 mg/L; MIC ([6]; ATCC19615, Streptococcus pyogenes ATCC 19615, read-out: Antibacterial in vitro action (MIC, mg/l)): < 0.125 mg/L; MIC ([8]; ATCC25238, Moraxella catarrhalis ATCC 25238, read-out: Antibacterial in vitro action (MIC, mg/l)): < 0.125 mg/L; MIC ([9]; ATCC19438, Campylobacter fetus ATCC 19438, read-out: Antibacterial in vitro action (MIC, mg/l)): < 0.125 mg/L; MIC ([10]; ATCC33291, Campylobacter jejuni ATCC 33291, read-out: Antibacterial in vitro action (MIC, mg/l)): < 0.125 mg/L
